Values joined by “and” are separate entries in the source; they are usually repeats but may differ in a detail not shown here. Identical values can stand only once. Like-named read-outs stand apart in the source and are kept apart here.
Legend:
PfPanK1 [1] = biological target: T1, PfPanK1 (Plasmodium falciparum, UniProt Q8ILP4); assay type: biochemical
T1 sequence (Q8ILP4 1-519): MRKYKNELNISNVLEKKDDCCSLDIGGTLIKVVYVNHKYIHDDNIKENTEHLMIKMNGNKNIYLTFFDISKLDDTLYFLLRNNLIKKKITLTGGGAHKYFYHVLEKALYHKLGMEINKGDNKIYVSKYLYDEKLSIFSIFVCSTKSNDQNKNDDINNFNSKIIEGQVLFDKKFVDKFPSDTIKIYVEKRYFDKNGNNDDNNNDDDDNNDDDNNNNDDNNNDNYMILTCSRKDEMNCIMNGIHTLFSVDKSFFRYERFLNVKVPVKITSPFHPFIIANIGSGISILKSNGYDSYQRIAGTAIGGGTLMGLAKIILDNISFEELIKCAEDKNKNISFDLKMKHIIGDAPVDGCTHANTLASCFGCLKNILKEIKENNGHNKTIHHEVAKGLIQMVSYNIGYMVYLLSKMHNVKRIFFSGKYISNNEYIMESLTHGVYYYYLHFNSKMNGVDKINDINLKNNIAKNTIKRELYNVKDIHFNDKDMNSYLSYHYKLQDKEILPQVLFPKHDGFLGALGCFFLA

PfPanK1 [2] = biological target: T1, PfPanK1; assay: Screening of natural compounds for PfPanK inhibitors and IC50 determination (recombinant enzyme, ADP Hunter Plus); assay type: biochemical
Description: We screened 247 compounds from the Kitasato Natural Products Library ([Mori et al., 2015]; [Nurkanto et al., 2018]) against PfPanK recombinant enzyme. Compounds were dissolved in 50% DMSO at a final concentration of 1 mg/ml.

[3] = metal ion 5 mM, substrate pantetheine, relative to MgCl2, pH 8.4, 37°C
[4] = metal ion 5 mM, substrate pantothenate, relative to MgCl2, pH 8.4, 37°C
[5] = primary screening; compound at 50 µM final concentration (methods: 50 µg/ml); 37°C, 2 h
[6] = pantetheine as substrate, 100 μM ATP, pH 8.4, 37°C
[7] = substrate pair pantothenate and ATP
[8] = substrate pair pantetheine and ATP

## [Cl][Fe][Cl] [FeCl2]
PfPanK1 [1]; [3]
  Relative activity (%) Pantetheine: 58.3 ± 3.3%
PfPanK1 [1]; metal ion 5 mM, substrate pantetheine, relative to MgCl2, pH 8.4, 37°C, listed as Ferrous cation
  Relative activity (%) Pantetheine: approximately 60%
PfPanK1 [1]; [4]
  Relative activity (%) Pantothenate: 104.7 ± 14.9%

## CO[C@@H]1[C@@H](O[C@@H]2O[C@H](C)[C@@H](O[C@H]3C[C@@](C)(O)[C@@H](OC(=O)CC(C)C)[C@H](C)O3)[C@H](N(C)C)[C@H]2O)[C@@H](CC=O)C[C@@H](C)[C@@H](O)/C=C/C=C/C[C@@H](C)OC(=O)C[C@H]1OC(C)=O [Leucomycin A3]
PfPanK1 [2]; 2 h, primary screening; 37°C
  inhibition: 40.1%

## [Cl][Mn][Cl] [MnCl2]
PfPanK1 [1]; [3]
  Relative activity (%) Pantetheine: 55.3 ± 0.1%
PfPanK1 [1]; [4]
  Relative activity (%) Pantothenate: 41.7 ± 8.4%

## Thaimycin
PfPanK1 [2]; [5]
  PfPanK1 Inhibition (%): 53.9%

## Cc1cn([C@H]2C[C@H](O)[C@@H](COP(=O)(O)OP(=O)(O)OP(=O)(O)O)O2)c(=O)[nH]c1=O [TTP]
PfPanK1 [1]; pH 8.4
  Relative activity (%) Pantetheine: 0.0 ± 0.0%
  Relative activity (%) Pantothenate: 13.1 ± 1.0%

## CN[C@@H]1[C@H](O[C@H]2[C@H](O[C@H]3[C@H](O)[C@@H](O)[C@H](NC(=N)N)[C@@H](O)[C@@H]3NC(=N)N)O[C@@H](C)[C@]2(O)CO)O[C@@H](CO)[C@H](O)[C@H]1O [Dihydrostreptomycin]
PfPanK1 [2]; 2 h, primary screening; 37°C
  inhibition: 44.7%

## CC(C)(CO)C(O)C(=O)NCCCO (stereo not drawn) [panthenol]
PfPanK1 [1]; high concentrations of panthenol (e.g., 0.5 mM), regardless of the substrates
  Increase of enzyme activity: up to 40%
PfPanK1 [1]; [6]
  Effect on PfPanK1 activity: did not inhibit PfPanK1 activity
PfPanK1 [1]; pantothenate as substrate, 100 μM ATP, pH 8.4, 37°C
  Effect on PfPanK1 activity: did not inhibit PfPanK1 activity

## CS[C@H]1SC[C@H]2C(=O)N(C)[C@@H](C(C)C)C(=O)OC[C@@H](NC(=O)c3cnc4ccccc4n3)C(=O)N[C@@H](C)C(=O)N(C)[C@@H]1C(=O)N(C)[C@@H](C(C)C)C(=O)OC[C@@H](NC(=O)c1cnc3ccccc3n1)C(=O)N[C@@H](C)C(=O)N2C [Echinomycin]
PfPanK1 [2]; 2 h, primary screening; 37°C
  inhibition: 47.1%

## CN[C@@H]1[C@H](O)[C@H](NC)[C@H]2O[C@@]3(O)C(=O)C[C@@H](C)O[C@H]3O[C@@H]2[C@H]1O [Spectinomycin (Actinospectacin), Spectinomycin]
PfPanK1 [2]; [5]
  PfPanK1 Inhibition (%): 55.0%

## [Cl-].[Cl-].[Co+2] [CoCl2]
PfPanK1 [1]; pH 8.4, 37°C
  Relative activity (%) Pantetheine: 22.3 ± 1.0%
  Relative activity (%) Pantothenate: 25.8 ± 1.9%

## [Cl][Cu][Cl] [CuCl2]
PfPanK1 [1]; [3]
  Relative activity (%) Pantetheine: 8.5 ± 1.3%
PfPanK1 [1]; [4]
  Relative activity (%) Pantothenate: 16.4 ± 1.5%

## Cc1nnc(SCC2=C(C(=O)O)N3C(=O)[C@@H](NC(=O)Cn4cnnn4)[C@H]3SC2)s1 [Cefazolin]
PfPanK1 [2]; 2 h, primary screening; 37°C
  inhibition: 44.2%

## CC(/C=C/C(O)=C1/C(=O)CNC1=O)=C\[C@@H](C)[C@H]1O[C@@]2(C)O[C@H](C(=O)[C@H]3O[C@]32C)[C@@H]1C [Tirandamycin A]
PfPanK1 [2]; [5]
  PfPanK1 Inhibition (%): 49.7%

## Nc1ccn([C@@H]2O[C@H](COP(=O)(O)OP(=O)(O)OP(=O)(O)O)[C@@H](O)[C@H]2O)c(=O)n1 [CTP]
PfPanK1 [1]; pH 8.4
  Relative activity (%) Pantetheine: 11.3 ± 0.6%
  Relative activity (%) Pantothenate: 28.1 ± 2.8%

## CC(C)(COP(=O)(O)OP(=O)(O)OC[C@H]1O[C@@H](n2cnc3c(N)ncnc32)[C@H](O)[C@@H]1OP(=O)(O)O)[C@@H](O)C(=O)NCCC(=O)NCCS [CoA, Coenzyme A]
PfPanK1 [1]; pH 8.4
  Effect on PfPanK1 activity: inhibited
PfPanK1 [1]; [6]
  Effect on PfPanK1 activity: inhibited

## NC[C@H]1O[C@H](O[C@H]2[C@H](O[C@@H]3O[C@H](CO)[C@@H](O)[C@H]3O)[C@@H](O)[C@H](N)C[C@@H]2N)[C@H](N)[C@@H](O)[C@@H]1O [Ribostamycin]
PfPanK1 [2]; 2 h, primary screening; 37°C
  inhibition: 46.6%

## CCC[C@@H]1C[C@@H](C(=O)N[C@@H]([C@H]2O[C@H](SC)[C@H](O)[C@@H](O)[C@H]2O)[C@@H](C)O)N(C)C1 [Lincomycin]
PfPanK1 [2]; 2 h, primary screening; 37°C
  inhibition: 41.3%

## CC(C)(CO)[C@@H](O)C(=O)NCCC(=O)O [Pantothenate]
PfPanK1 [1]
  K m: 44.6 ± 5.6 µM
  k cat/K m: 19.1 ± 1.0 min^-1µM^-1
PfPanK1 [1]; [7]
  V max: 14.2 ± 0.71 µmol/min/mg
  k cat: 854 ± 77 min⁻¹

## Nc1ncnc2c1ncn2[C@@H]1O[C@H](COP(=O)(O)OP(=O)(O)OP(=O)(O)O)[C@@H](O)[C@H]1O [ATP]
PfPanK1 [1]
  K m: 59.3 ± 7.9 µM
PfPanK1 [1]; pH 8.4
  Relative activity (%) Pantothenate: 100%
PfPanK1 [1]; phosphoryl donor (NTP) 100 µM, substrate pantetheine, relative to ATP, pH 8.4, 37°C
  Relative activity (%) Pantetheine: 100%
PfPanK1 [1]; [8]
  V max: 18.3 ± 3.0 µmol/min/mg
  k cat: 1233 ± 54 min⁻¹
  k cat/K m: 26.6 ± 6.3 min^-1µM^-1
PfPanK1 [1]; substrate pair pantetheine and ATP, 120 µM ATP or 100 µM pantetheine, 37°C
  K m: 43.4 ± 3.3 µM and 43.4 ± 3.4 µM
PfPanK1 [1]; [7]
  V max: 15.9 ± 2.5 µmol/min/mg
  k cat: 966 ± 103 min⁻¹
  k cat/K m: 16.1 ± 1.0 min^-1µM^-1

## CC1(C)S[C@@H]2[C@H](NC(=O)[C@H](N)c3ccc(O)cc3)C(=O)N2[C@H]1C(=O)O [Amoxicillin]
PfPanK1 [2]; primary screening; 37°C, 2 h
  inhibition: 45.7%
